Test results: ChEMBL document CHEMBL5052856, “Inhibitors of apol1 and methods of using same” (2021)

These molecules were tested against Apolipoprotein L1 (Homo sapiens, UniProt O14791) (assay: Inhibition of APOL1 G1 variant in human HEK293-T-REx cells measured by Thallium assay).
Format: cell-based

| Structure (SMILES) | IC50 |
| --- | --- |
| O=C(NCC(F)F)O[C@H]1C[C@H](c2c(-c3ccc(F)cc3)[nH]c3c(F)cc(F)cc32)C1 | 0.25 nM |
| O=C(N[C@@H]1CCOC1)[C@H]1C[C@@H](c2c(-c3ccc(F)cc3)[nH]c3c(F)cc(F)cc32)C1 | > 1000 nM |
| NC(=O)C(CO)NCC1CC(c2c(-c3ccc(F)cc3)[nH]c3c(F)cc(F)cc23)C1 (centres undefined) | 0.25 nM |
| O=C(NCC(O)CO)O[C@H]1C[C@H](c2c(-c3ccc(F)cc3)[nH]c3c(F)cc(F)cc32)C1 (some centres undefined) | > 1000 nM |
| Cn1cnc(CNC(=O)[C@H]2C[C@@H](c3c(-c4ccc(F)cc4)[nH]c4c(F)cc(F)cc43)C2)c1 | > 1000 nM |
| O=C(N[C@H]1CCOC1)[C@H]1C[C@@H](c2c(-c3ccc(F)cc3)[nH]c3c(F)cc(F)cc32)C1 | > 1000 nM |
| O=C(NCC1CCOCC1)C1CC(Cc2c(-c3ccc(F)cc3)[nH]c3c(F)cc(F)cc23)C1 (centres undefined) | > 1000 nM |
| CC(C)CC(NCC1CC(c2c(-c3ccc(F)cc3)[nH]c3c(F)cc(F)cc23)C1)C(N)=O (centres undefined) | > 1000 nM |
| C[C@H](CO)NC(=O)[C@H]1C[C@@H](c2c(-c3ccc(F)cc3)[nH]c3c(F)cc(F)cc32)C1 | > 1000 nM |
| O=C(NC[C@H]1CC[C@@H](CO)O1)NC[C@H]1C[C@H](c2c(-c3ccc(F)cc3)[nH]c3c(F)cc(F)cc32)C1 | > 1000 nM |
| CNC(=O)C(C)NCC1CC(c2c(-c3ccc(F)cc3)[nH]c3c(F)cc(F)cc23)C1 (centres undefined) | 0.25 nM |
| O=C(NC[C@H]1C[C@H](c2c(-c3ccc(F)cc3)[nH]c3c(F)cc(F)cc32)C1)N[C@H]1CC[C@H](O)C1 | > 1000 nM |
| O=C(NC[C@H]1C[C@H](c2c(-c3ccc(F)cc3)[nH]c3c(F)cc(F)cc32)C1)N[C@H]1CC[C@H]1O | > 1000 nM |
| Cc1ccn(CCNC(=O)[C@H]2C[C@@H](c3c(-c4ccc(F)cc4)[nH]c4c(F)cc(F)cc43)C2)n1 | 0.25 nM |
| CC1(NC(=O)C2CC(Cc3c(-c4ccc(F)cc4)[nH]c4c(F)cc(F)cc34)C2)CCOC1 (centres undefined) | > 1000 nM |
| COCCNC(=O)[C@H]1C[C@@H](c2c(-c3ccc(F)cc3)[nH]c3c(F)cc(F)cc32)C1 | > 1000 nM |
| O=C(CC1CC(c2c(-c3ccc(F)cc3)[nH]c3c(F)cc(F)cc23)C1)NC1(CO)CC1 (centres undefined) | 0.25 nM |
| CCC(O)CNC(=O)O[C@H]1C[C@H](c2c(-c3ccc(F)cc3)[nH]c3c(F)cc(F)cc32)C1 (some centres undefined) | > 1000 nM |
| O=C(NCC(O)CO)[C@H]1C[C@@H](c2c(-c3ccc(F)cc3)[nH]c3c(F)cc(F)cc32)C1 (some centres undefined) | > 1000 nM |
| O=C(NCc1ccoc1)C1CC(Cc2c(-c3ccc(F)cc3)[nH]c3c(F)cc(F)cc23)C1 (centres undefined) | > 1000 nM |

Results, then the molecule that gave them:

| IC50 | Structure (SMILES) |
| --- | --- |
| 0.25 nM | O=C(N[C@@H]1CCNC1=O)O[C@H]1C[C@H](c2c(-c3ccc(F)cc3)[nH]c3c(F)cc(F)cc32)C1 |
| > 1000 nM | C[C@H](CO)NC(=O)CNC(=O)[C@H]1C[C@H](c2c(-c3ccc(F)cc3)[nH]c3c(F)cc(F)cc32)C1 |
| > 1000 nM | O=C(Nc1c[nH][nH]c1=O)C1CC(Cc2c(-c3ccc(F)cc3)[nH]c3c(F)cc(F)cc23)C1 (centres undefined) |
| > 1000 nM | O=C(NCC1COC1)[C@H]1C[C@@H](c2c(-c3ccc(F)cc3)[nH]c3c(F)cc(F)cc32)C1 |
| > 1000 nM | O=C(NCC1(O)CCCC1)C1CC(Cc2c(-c3ccc(F)cc3)[nH]c3c(F)cc(F)cc23)C1 (centres undefined) |
| < 250 nM | O=C1NC[C@@H](O)[C@@H]1NC(=O)[C@H]1C[C@H](c2c(-c3ccc(F)cc3)[nH]c3c(F)cc(F)cc32)C1 |
| 0.25 nM | O=C(NCC(F)F)[C@H]1C[C@@H](c2c(-c3ccc(F)cc3)[nH]c3c(F)cc(F)cc32)C1 |
| > 1000 nM | CC(C)[C@@H](CO)NC(=O)O[C@H]1C[C@H](c2c(-c3ccc(F)cc3)[nH]c3c(F)cc(F)cc32)C1 |
| > 1000 nM | O=C(NCC1(CO)CC1)C1CC(Cc2c(-c3ccc(F)cc3)[nH]c3c(F)cc(F)cc23)C1 (centres undefined) |
| > 1000 nM | O=C(NCc1cnco1)C1CC(Cc2c(-c3ccc(F)cc3)[nH]c3c(F)cc(F)cc23)C1 (centres undefined) |
| 0.25 nM | CCNC(=O)N1CC(c2c(-c3ccc(F)cc3)[nH]c3c(F)cc(F)cc23)C1 |
| > 1000 nM | CC(C)(C)[C@H](CO)NC(=O)NC[C@H]1C[C@H](c2c(-c3ccc(F)cc3)[nH]c3c(F)cc(F)cc32)C1 |
| > 1000 nM | CN(CC1CC(c2c(-c3ccc(F)cc3)[nH]c3c(F)cc(F)cc23)C1)C(=O)NCc1cn(C)cn1 (centres undefined) |
| < 250 nM | CC1(C(=O)NC2(CO)CC2)CC(c2c(-c3ccc(F)cc3)[nH]c3c(F)cc(F)cc23)C1 (centres undefined) |
| > 1000 nM | O=C(CNC(=O)[C@H]1C[C@H](c2c(-c3ccc(F)cc3)[nH]c3c(F)cc(F)cc32)C1)NCCO |
| 0.25 nM | CC(CO)NC(=O)O[C@H]1C[C@H](c2c(-c3ccc(F)cc3)[nH]c3c(F)cc(F)cc32)C1 (some centres undefined) |
| > 1000 nM | C[C@H](NC(=O)C1CC(Cc2c(-c3ccc(F)cc3)[nH]c3c(F)cc(F)cc23)C1)C(C)(C)O (some centres undefined) |
| > 1000 nM | O=C(NCc1cn(CC(F)(F)F)cn1)O[C@H]1C[C@H](c2c(-c3ccc(F)cc3)[nH]c3c(F)cc(F)cc32)C1 |
| > 1000 nM | O=C(CC1CC(c2c(-c3ccc(F)cc3)[nH]c3c(F)cc(F)cc23)C1)NCCO (centres undefined) |
